The assay has as its system Male Wistar rats. In words: Refeeding after 24 h fast, subcutaneous injection, sham operated or AP-SFO lesioned rats. The format is in vivo, rat. The procedure:
Male Wistar rats were either sham operated or subjected to electrolytic lesions of the AP, SFO or both. Two weeks were allowed for recovery after surgeries while body weight, food and water intake were measured daily. Then rats, which were fasted for 24 hours, were subcutaneously injected with anorexigenic doses of PYY-HAS, PYY or saline (for controls) following which free access to food was reallowed. Food and water intake were measured for 24 hours following drug injections. […] However, the anorexigenic effect of both peptides was delayed in AP-SFO-lesioned rats, 1 hour in PYY treated rats and 2 hours in PYY-HAS treated rats.

In the case of PYY, the “delay of anorexigenic effect in AP-SFO-lesioned rats” value (AP-SFO-lesioned rats) was 1 h. Further, where the note is “after 24 hours fast”, the “body weight gain after food deprivation” value was “did not”, the “persistence of anorexigenic effect during refeeding” value was “only during the first two hours of refeeding” and the “time of maximum anorexigenic effect” value was 1 h.

The values are drawn from US20090099074A1, “MODULATING FOOD INTAKE” (CONJUCHEM BIOTECHNOLOGIES INC., priority 2007, published 2009).
